Experimental findings from patent US9351940B2, “Nanoparticles comprising esters of poly (methyl vinyl ether-co-maleic anhydride) and uses thereof” (priority 2011, dated 2016) are described below.

Converted amounts (≈) assume the structure as drawn.

This data set in a line: Water solubility of KTZ in aqueous suspension without polymer. In kind it is physicochemical. Conditions: kinetic from dmso stock, aqueous suspension after precipitation from alcoholic solution, no polymer.

Protocol: The selection of the appropriate Ketoconazole:polymer ratio (w/w) which is needed to dissolve drug crystals and to obtain homogeneous nanoparticles free from drug crystals was firstly optimized. For that purpose, 200 mg of KTZ were resuspended in different volumes of both absolute ethanol (10, 15 and 20 mL) as control solution or in the same volumes of GANTREZ® ES 425 ethanolic solution (50 mg/mL). GANTREZ® ES nanoparticles were produced by the addition of the corresponding volume of bidistilled water (2:1 (v/v) water/polymer solution) to GANTREZ® ES alcoholic solutions containing KTZ. […] Finally, the aqueous suspensions of KTZ-loaded GANTREZ® ES nanoparticles and KTZ aqueous suspension without the polymer were collected for further characterization and drug content quantification.
The amount of encapsulated drug in the nanoparticles was assayed by UV spectrophotometry at 257 nm (Shimadzu 1203 UV-VIS). In order to quantify the amount of KTZ in the nanoparticles suspension or free KTZ suspension without the polymer GANTREZ® ES), all samples of fleshly prepared formulations were evaporated under reduced pressure to eliminate ethanol, and then 1 mL of triplicate samples were centrifuged at 20,000 rpm for 25 min. […]

Compound `CC(=O)N1CCN(c2ccc(OCC3COC(Cn4ccnc4)(c4ccc(Cl)cc4Cl)O3)cc2)CC1` (stereo not shown) [KTZ, Ketoconazole] returned a solubility of about 11 µg/mL (≈ 20.7 µM).
